Reference: patent US9018214B2, “Bicyclic heterocycle compounds and their uses in therapy” (Astex Therapeutics Limited, priority 2011, dated 2015)
Counter-ions that a name gives are not always drawn. Like-named read-outs stand apart in the source and are kept apart here.

Key:
[1] = molecular target: BIR3 domain of human XIAP (residues 252-350) (Homo sapiens (Human), UniProt P98170); test: XIAP in vitro competitive displacement binding assay (fluorescence polarization); conditions: for IC50: read-out: IC50 or PI Xiap: IC50
[2] = molecular target: BIR3 domain of human cIAP-1 (residues 267-363) (Homo sapiens (Human), UniProt Q13490); test: cIAP-1 in vitro competitive displacement binding assay (fluorescence polarization; Probe A AVPIK(5&6FAM)-amide or Probe B AbuRPFK(5&6FAM)-amide)
[3] = system: EVSA-T (human breast carcinoma); test: Anti-proliferative activity, Alamar Blue assay, EVSA-T; assay type: cell-based; conditions: for EC50: Homo sapiens, EVSA-T, read-out: EVSA-T prolif (EC50)
[4] = read-out: IC50 or PI cIAP1: IC50
[5] = Probe B AbuRPFK(5&6FAM)-amide, read-out: IC50 or PI cIAP1: IC50
[6] = 3 h, Probe B, @ 0.012 μM, read-out: IC50 or PI cIAP1: PI
[7] = 3 h, read-out: IC50 or PI cIAP1: PI
[8] = 1 h, read-out: IC50 or PI Xiap: PI

EC50 ([3]; 72 hours, Alamar Blue)	Structure (SMILES)	IC50 [1]	EC50 ([3]; 72 h)	inhibition at […] [2, 7]	further results
–	C[C@@H]1CN(CC(=O)N2CC(C)(C)c3ncc(C(C)(F)F)cc32)[C@@H](CN2CCc3cccnc32)CN1 [Example 222, 1-[6-(1,1-Difluoroethyl)-3,3-dimethyl-1H,2H,3H-pyrrolo[3,2-b]pyridin-1-yl]-2-[(2R,5R)-5-methyl-2-{1H,2H,3H-pyrrolo[2,3-b]pyridin-1-ylmethyl}piperazin-1-yl]ethan-1-one dihydrochloride]	220 nM	9600 nM	–	IC50 [2]: < 1000 nM; IC50 [2, 4]: 140 nM
640 nM	COC[C@H]1CN[C@H](C)CN1CC(=O)N1CC(C)(C)c2cnc(C(F)(F)c3ccccc3)cc21 [Example 146, 1-{6-[Difluoro(phenyl)methyl]-3,3-dimethyl-1H,2H,3H-pyrrolo[3,2-c]pyridin-1-yl}-2-[(2R,5R)-2-(methoxymethyl)-5-methylpiperazin-1-yl]ethan-1-one hydrochloride]	75 nM	–	–	IC50 [2, 5]: 17 nM
200 nM	CC[C@H]1CN[C@H](C)CN1CC(=O)N1CC(C)(C)c2cnc(Cc3ccccc3)cc21 [Example 91, 1-{6-Benzyl-3,3-dimethyl-1H,2H,3H-pyrrolo[3,2-c]pyridin-1-yl}-2-[(2S,5R)-2-ethyl-5-methylpiperazin-1-yl]ethan-1-one, hydrochloride salt]	290 nM	–	–	IC50 [2, 5]: 19 nM
2.2 nM	C[C@@H]1CN(CC(=O)N2CC(C)(C)c3cnc(Cc4ccccc4F)cc32)[C@@H](CN2CCOC[C@H]2C)CN1 [Example 244, 1-{6-[(2-Fluorophenyl)methyl]-3,3-dimethyl-1H,2H,3H-pyrrolo[3,2-c]pyridin-1-yl}-2-[(2R,5R)-5-methyl-2-{[(3R)-3-methylmorpholin-4-yl]methyl}piperazin-1-yl]ethan-1-one hydrochloride]	–	–	–	inhibition at 0.04 µM ([1]; 1 h, @ 0.04 μM, read-out: IC50 or PI Xiap: PI): 67%; inhibition at […] [2, 6]: 98%
–	C[C@@H]1CN(CC(=O)N2CC(C)(C)c3cnc(Cc4ccc(F)cc4F)cc32)[C@@H](CN2CCOC2=O)CN1 [Example 209, 3-{[(2R,5R)-1-(2-{6-[(2,4-Difluorophenyl)methyl]-3,3-dimethyl-1H,2H,3H-pyrrolo[3,2-c]pyridin-1-yl}-2-oxoethyl)-5-methylpiperazin-2-yl]methyl}-1,3-oxazolidin-2-one dihydrochloride]	47 nM	19 nM	90%	–
6800 nM	COC[C@H]1CN[C@H](C)CN1CC(=O)N1CC2(Cc3ccccc3C2)c2ccc(Cl)cc21 [Example 120, 1-{6′-Chloro-1,1′,2′,3-tetrahydrospiro[indene-2,3′-indole]-1′-yl}-2-[(2R,5R)-2-(methoxymethyl)-5-methylpiperazin-1-yl]ethan-1-one]	260 nM	–	–	IC50 [2, 5]: 170 nM
–	C[C@@H]1CN(CC(=O)N2CC(C)(C)c3ncc(C(F)(F)C4CCC4)cc32)[C@@H](CN2CCCC2=O)CN1 [Example 226, 1-{[(2R,5R)-1-{2-[6-(Cyclobutyldifluoromethyl)-3,3-dimethyl-1H,2H,3H-pyrrolo[3,2-b]pyridin-1-yl]-2-oxoethyl}-5-methylpiperazin-2-yl]methyl}pyrrolidin-2-one dihydrochloride]	46 nM	400 nM	–	IC50 [2]: < 1000 nM; IC50 [2, 4]: 21 nM
310 nM	COC[C@H]1CN[C@H](C)CN1CC(=O)N1CC(C)(C)c2cnc(Cc3cccc(Cl)c3)cc21 [Example 86, 1-{6-[(3-Chlorophenyl)methyl]-3,3-dimethyl-1H,2H,3H-pyrrolo[3,2-c]pyridin-1-yl}-2-[(2R,5R)-2-(methoxymethyl)-5-methylpiperazin-1-yl]ethan-1-one, hydrochloride salt]	290 nM	–	–	IC50 [2]: < 1000 nM; IC50 [2, 5]: 12 nM
–	C[C@@H]1CN(CC(=O)N2CC(C)(C)c3cnc(Cc4ccc(F)cc4F)cc32)[C@@H](Cn2ccncc2=O)CN1 [Example 195, 1-{[(2R,5R)-1-(2-{6-[(2,4-Difluorophenyl)methyl]-3,3-dimethyl-1H,2H,3H-pyrrolo[3,2-c]pyridin-1-yl}-2-oxoethyl)-5-methylpiperazin-2-yl]methyl}-1,2-dihydropyrazin-2-one dihydrochloride]	67 nM	36 nM	96%	–
–	C[C@@H]1CN(CC(=O)N2CCc3cc(=O)n(Cc4ccccc4)cc32)CCN1.Cl [Example 39, 6-Benzyl-1-[2-((R)-3-methyl-piperazin-1-yl)-acetyl]-1,2,3,6-tetrahydro-pyrrolo[2,3-c]pyridin-5-one hydrochloride salt]	–	–	–	inhibition at 3 µM ([1]; 1 h, @ 3 μM, read-out: IC50 or PI Xiap: PI): 55%; inhibition at 1 µM ([2]; 3 h, Probe A, @ 1 μM, read-out: IC50 or PI cIAP1: PI): 46%; EVSA-T prolif: % inhibition ([3]; concentration not printed (cell truncated)): −15% at
–	C[C@@H]1CN(CC(=O)N2CC(C)(C)c3cnc(Cc4ccc(F)cc4F)cc32)[C@@H](CN2CCOCC2)CN1 [Example 219, 1-{6-[(2,4-Difluorophenyl)methyl]-3,3-dimethyl-1H,2H,3H-pyrrolo[3,2-c]pyridin-1-yl}-2-[(2R,5R)-5-methyl-2-(morpholin-4-ylmethyl)piperazin-1-yl]ethan-1-one dihydrochloride]	53 nM	5 nM	93%	–
–	C[C@@H]1CN(CC(=O)N2CC(C)(C)c3cnc(Cc4ccc(F)cc4F)cc32)[C@@H](CN2CC[C@@H](F)C2)CN1 [Example 203, 1-{6-[(2,4-Difluorophenyl)methyl]-3,3-dimethyl-1H,2H,3H-pyrrolo[3,2-c]pyridin-1-yl}-2-[(2R,5R)-2-{[(3R)-3-fluoropyrrolidin-1-yl]methyl}-5-methylpiperazin-1-yl]ethan-1-one dihydrochloride]	73 nM	3.2 nM	97%	–
–	C[C@@H]1CN(CC(=O)N2CC(C)(C)c3cnc(Cc4ccc(F)cc4F)cc32)[C@@H](Cn2cccnc2=O)CN1 [Example 185, 1-{[(2R,5R)-1-(2-{6-[(2,4-Difluorophenyl)methyl]-3,3-dimethyl-1H,2H,3H-pyrrolo[3,2-c]pyridin-1-yl}-2-oxoethyl)-5-methylpiperazin-2-yl]methyl}-1,2-dihydropyrimidin-2-one dihydrochloride]	77 nM	10 nM	94%	–
–	CCS(=O)(=O)c1ccc2c(c1)N(C(=O)CN1C[C@@H](C)NC[C@@H]1COC)CC2(C)C [Example 59, 1-(6-Ethane-sulfonyl-3,3-dimethyl-2,3-dihydro-indol-1-yl)-2-((2R,5R)-2-methoxymethyl-5-methyl-piperazin-1-yl)-ethanone dihydrochloride salt]	310 nM	9700 nM	–	IC50 [2, 4]: 500 nM
81 nM	CCCC(F)(F)c1cnc2c(c1)N(C(=O)CN1C[C@@H](C)NC[C@@H]1CN1CC[C@@H](F)C1)CC2(C)C [Example 223, 1-[6-(1,1-Difluorobutyl)-3,3-dimethyl-1H,2H,3H-pyrrolo[3,2-b]pyridin-1-yl]-2-[(2R,5R)-2-{[(3R)-3-fluoropyrrolidin-1-yl]methyl}-5-methylpiperazin-1-yl]ethan-1-one hydrochloride]	120 nM	–	–	inhibition at […] [2, 6]: 62%
–	C[C@@H]1CN(CC(=O)N2CC(C)(C)c3ncc(Cc4ccc(F)cc4F)cc32)[C@@H](CN2CCOC2=O)CN1 [Example 200, 3-{[(2R,5R)-1-(2-{6-[(2,4-Difluorophenyl)methyl]-3,3-dimethyl-1H,2H,3H-pyrrolo[3,2-b]pyridin-1-yl}-2-oxoethyl)-5-methylpiperazin-2-yl]methyl}-1,3-oxazolidin-2-one dihydrochloride]	74 nM	8.8 nM	96%	–
–	C[C@@H]1CN(CC(=O)N2CC(C)(C)c3ncc(C(F)(F)c4ccccc4)cc32)[C@@H](CN2CC[C@@H](F)C2)CN1 [Example 221, 1-{6-[Difluoro(phenyl)methyl]-3,3-dimethyl-1H,2H,3H-pyrrolo[3,2-b]pyridin-1-yl}-2-[(2R,5R)-2-{[(3R)-3-fluoropyrrolidin-1-yl]methyl}-5-methylpiperazin-1-yl]ethan-1-one dihydrochloride]	73 nM	54 nM	78%	–

Structure (SMILES)	EC50 ([3]; 72 hours, Alamar Blue)	IC50 [1]	EC50 ([3]; 72 h)	inhibition at […] [2, 7]	further results
C[C@@H]1CN(CC(=O)N2CC(C)(C)c3cnc(C(F)(F)c4ccccc4)cc32)[C@@H](C(=O)N2CCOCC2)CN1 [Example 178, 1-{6-[Difluoro(phenyl)methyl]-3,3-dimethyl-1H,2H,3H-pyrrolo[3,2-c]pyridin-1-yl}-2-[(2R,5R)-5-methyl-2-[(morpholin-4-yl)carbonyl]piperazin-1-yl]ethan-1-one dihydrochloride]	67 nM	–	–	60%	inhibition at 0.04 µM [1, 8]: 50%
C[C@@H]1CN(CC(=O)N2CC(C)(C)c3cnc(C(F)(F)c4ccccc4)cc32)[C@@H](CN2CC[C@@H](F)C2)CN1 [Example 213, 1-{6-[Difluoro(phenyl)methyl]-3,3-dimethyl-1H,2H,3H-pyrrolo[3,2-c]pyridin-1-yl}-2-[(2R,5R)-2-{[(3R)-3-fluoropyrrolidin-1-yl]methyl]-5-methylpiperazin-1-yl]ethan-1-one dihydrochloride]	6 nM	–	–	82%	inhibition at 0.04 µM [1, 8]: 61%
C[C@@H]1CN(CC(=O)N2CC(C)(C)c3cnc(Cc4ccc(F)cc4F)cc32)[C@@H](Cn2ccccc2=O)CN1 [Example 193, 1-{[(2R,5R)-1-(2-{6-[(2,4-Difluorophenyl)methyl]-3,3-dimethyl-1H,2H,3H-pyrrolo[3,2-c]pyridin-1-yl}-2-oxoethyl)-5-methylpiperazin-2-yl]methyl}-1,2-dihydropyridin-2-one dihydrochloride]	16 nM	–	–	98%	inhibition at 0.04 µM [1, 8]: 44%
